According to paper PMC3566764, “Thioester derivatives of the natural product psammaplin A as potent histone deacetylase inhibitors” (Beilstein Journal of Organic Chemistry, 2013):

Assays:
[1] = biological target: T1, recombinant human HDAC6 (rHDAC6) (Homo sapiens, UniProt Q9UBN7); experiment: rHDAC6 inhibition, coupled Boc-Lys(Ac)-AMC/trypsin fluorescence assay; assay type: biochemical; conditions: purified recombinant human HDAC6
T1 construct: purchased BPS Bioscience (US)
T1 sequence (Q9UBN7 1-1215): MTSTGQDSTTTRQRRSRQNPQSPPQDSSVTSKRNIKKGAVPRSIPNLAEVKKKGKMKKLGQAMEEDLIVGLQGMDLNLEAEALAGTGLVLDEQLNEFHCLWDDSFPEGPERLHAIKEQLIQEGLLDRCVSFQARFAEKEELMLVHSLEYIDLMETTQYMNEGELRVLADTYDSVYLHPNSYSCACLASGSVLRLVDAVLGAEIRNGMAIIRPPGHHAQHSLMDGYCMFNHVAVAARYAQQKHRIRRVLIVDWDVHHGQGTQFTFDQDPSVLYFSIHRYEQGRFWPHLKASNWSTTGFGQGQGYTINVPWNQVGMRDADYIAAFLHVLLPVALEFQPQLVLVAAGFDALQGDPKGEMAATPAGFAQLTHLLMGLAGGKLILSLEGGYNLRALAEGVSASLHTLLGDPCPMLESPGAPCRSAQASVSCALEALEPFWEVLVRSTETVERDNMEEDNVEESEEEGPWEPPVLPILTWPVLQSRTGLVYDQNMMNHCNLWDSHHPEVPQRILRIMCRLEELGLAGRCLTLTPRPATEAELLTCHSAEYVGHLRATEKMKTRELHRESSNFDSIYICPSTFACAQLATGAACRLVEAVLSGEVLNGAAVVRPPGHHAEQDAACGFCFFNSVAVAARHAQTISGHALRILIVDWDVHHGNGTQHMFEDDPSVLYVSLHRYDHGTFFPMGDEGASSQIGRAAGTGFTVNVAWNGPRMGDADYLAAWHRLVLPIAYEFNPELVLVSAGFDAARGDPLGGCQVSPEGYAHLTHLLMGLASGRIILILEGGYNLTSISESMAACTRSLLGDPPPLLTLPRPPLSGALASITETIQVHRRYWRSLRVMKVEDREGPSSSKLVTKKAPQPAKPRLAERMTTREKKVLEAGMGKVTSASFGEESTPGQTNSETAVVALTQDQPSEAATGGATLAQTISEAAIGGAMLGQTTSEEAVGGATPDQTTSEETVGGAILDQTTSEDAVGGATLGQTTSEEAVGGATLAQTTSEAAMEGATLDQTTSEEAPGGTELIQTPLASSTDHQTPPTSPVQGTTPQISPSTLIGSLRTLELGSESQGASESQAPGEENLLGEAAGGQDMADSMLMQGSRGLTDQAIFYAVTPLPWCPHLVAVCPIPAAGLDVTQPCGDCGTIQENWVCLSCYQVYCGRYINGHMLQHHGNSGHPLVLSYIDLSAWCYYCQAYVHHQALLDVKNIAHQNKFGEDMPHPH
Method: (§1) HDAC assays were performed as previously reported. The recombinant human histone deacetylases rHDAC1 and rHDAC6 were obtained from BPS Bioscience (US).
(§2) All reactions were performed in black half area 96-well microplates (Greiner bio-one, Germany) according to the general procedure described by Wegener et al. with some minor modifications. […] The buffer components were purchased from Merck (Germany), Roth (Germany) and Sigma-Aldrich.
(§3) The enzyme reaction was initiated by the addition of Boc-Lys(Ac)-AMC substrate. The reaction mixture was incubated at 30 °C in the dark and stopped after 60 min by the addition of a mixture of 70 µM trypsin and 200 nM SAHA. The fluorescence of AMC served as an indirect measure of HDAC enzyme activity. The kinetics of AMC release was measured on a PolarStar fluorescence plate reader (BMG) with an excitation wavelength of 340 nm and an emission wavelength of 460 nm. Complete cleavage of deacetylated Boc-Lys-AMC by trypsin was achieved after about 10–15 min. The fluorescence intensity of the plateau was averaged over at least 5 min and normalized with respect to the percentage of enzyme activity. Finally, the normalized fluorescence intensities were plotted versus the concentration of test compounds and fitted to a four-parameter logistic model to calculate the IC50 values.

[2] = test system: MCF7 (human breast carcinoma); experiment: Cytotoxicity against MCF7 cell line; assay type: cell-based; conditions: MCF7 cells
Method: (§4) Thioesters 7–9 were assayed against A549, MCF7 and WI38 cell lines, in addition to recombinant human rHDAC1 (class I) and recombinant human HDAC6 (rHDAC6, class II) as previously reported. Psammaplin A (3), prereduced psammaplin A thiol (4), and SAHA (1) were included as control compounds. IC50^6/1 is defined by the ratio IC50^HDAC6/IC50^HDAC1 and was used as an indicator of isoform selectivity in vitro.

[3] = test system: A549 (human lung carcinoma); experiment: Cytotoxicity against A549 cell line; assay type: cell-based; conditions: Homo sapiens; A549 cells
Method: as §4

[4] = biological target: T2, rHDAC1 (Homo sapiens, UniProt Q13547); experiment: rHDAC1 inhibition, coupled Boc-Lys(Ac)-AMC/trypsin fluorescence assay; assay type: biochemical
T2 construct: purchased BPS Bioscience (US)
T2 sequence (Q13547 whole entry): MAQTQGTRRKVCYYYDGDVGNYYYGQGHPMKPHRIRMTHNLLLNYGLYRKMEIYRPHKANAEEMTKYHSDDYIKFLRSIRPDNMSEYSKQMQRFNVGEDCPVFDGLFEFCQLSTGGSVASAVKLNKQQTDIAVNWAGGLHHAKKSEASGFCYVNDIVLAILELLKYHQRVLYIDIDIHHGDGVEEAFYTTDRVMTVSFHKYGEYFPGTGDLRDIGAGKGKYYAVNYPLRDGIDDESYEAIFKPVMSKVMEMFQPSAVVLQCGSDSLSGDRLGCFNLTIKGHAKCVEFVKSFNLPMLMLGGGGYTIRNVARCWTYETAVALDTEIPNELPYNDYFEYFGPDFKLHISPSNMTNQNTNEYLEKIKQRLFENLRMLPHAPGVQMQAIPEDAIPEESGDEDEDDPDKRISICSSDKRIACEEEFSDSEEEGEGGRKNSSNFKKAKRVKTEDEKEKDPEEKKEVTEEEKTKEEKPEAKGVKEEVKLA
Method: as §1, §2, §3

[5] = test system: WI38 (normal human lung fibroblast); experiment: Cytotoxicity against WI38 cell line; assay type: cell-based; conditions: Homo sapiens, WI-38; WI38 cells
Method: as §4

[6] = Thioester hydrolysis in assay buffer, thiol detection with fluorescent coumarin probe 10; assay type: physicochemical; conditions: incubation with probe 10 in buffer FB-188, up to 100 minutes
From the text: We therefore undertook preliminary studies to attempt to shed light on the reasons for the high potency of our thioesters in the enzymatic assays. We first envisaged that our assay buffer could potentially be responsible for thioester hydrolysis. We prepared and used synthetic probe 10 [30] (Scheme 3) in order to test this hypothesis. Coumarin-based probe 10 is known to react extremely fast with thiols through a Michael addition reaction. While the fluorescence of 10 is efficiently quenched by the intramolecular double bond, upon reaction with thiols, a highly fluorescent conjugate 11 is produced.
[formula] […] Bottom left: Fluorescence intensity at 465 nm (Y-axis, A.U.) as a function of the number of equivalents of 2-mercaptoethanol added (X-axis). Bottom right: Fluorescence intensity at 465 nm (Y-axis, A.U.) as a function of the incubation time (X-axis, minutes) of probe 10 with thioester 8.
Control experiments were performed using 2-mercaptoethanol as the thiol source. Fluorescence spectra of 10 (10^−6 M 10 in buffer FB-188 [31]) were recorded after incubation with 0, 0.2, 0.4, 0.6, 0.8, 1.0 and 1.5 equiv 2-mercaptoethanol (Scheme 3, bottom left). As expected, a linear relationship between fluorescence intensity and the concentration of thiol could be observed between 0 and 1.0 equiv, confirming the sensitivity and reliability of this system at low concentration. […]

IC50 [1]: 23 µM
IC50^6/1 (ratio IC50 HDAC6/IC50 HDAC1) ([4]; isoform selectivity in vitro): 4560
IC50 ([4]; purified recombinant human HDAC1): 0.005 µM
times less potent than the corresponding free thiol analogue against rHDAC1 ([4]; thioester vs free thiol): 2.5 times
thiol formation (thioester hydrolysis) in assay buffer [6]: no evidence of thiol formation
SMILES: COc1ccc(C/C(=N\O)C(=O)NCCSC(C)=O)cc1Br [Compound 8, (E)-(S)-2-(3-(3-Bromo-4-methoxyphenyl)-2-(hydroxyimino)propanamido)ethyl ethanethioate]
IC50 [2]: 3.2 µM
IC50 [3]: 8.3 µM
IC50 [5]: 5.2 µM
